Assay results taken from paper PMC12313340, “Functional analysis of a UDP-glucosyltransferase gene contributing to biosynthesis of the flavonol triglycoside in tea plants” (Horticulture Research, 2025).

B1: CsFGT (rCsFGT) (Camellia sinensis) (protein)
chain: MERDIHAALVPFVAFGHLIPFYELSIALAKAGIHVSFISTRNNIQRLPPLPPHLSSLITFVPLSWSTVGTNLLPEGIEATADILPDNFEHLMAAFDLLKHPFKQFVIEQSPDWIISDFVSYWTVDVAKECHIPLVIFSARSAATNVFFGPPEYLSGNGQRRLRSSPEDLTSPPWWVSFRSSVHYRRYEAIGAIAGFYTANASGISGAERVGRTLDGCRALAIRSCREFEGEYFDLFGKIMGNKRVIPTGVLLPEKPKKTPTAAAHNAEWSKIFEWLDEQKPKSVVFVGFGSECKFSRDQVYEIASGLESSELPFLWALRKPSWASDDLDTMPPDFGRRTSGRGKVSIGWAPQIEILAHPSIGGSLVHAGWGSVVESLRFGHCMVVLPLIADQPLNARLLVEKGLAIEVERGEDGSFCGNNIALCLRKSMASKEGDEMRTRVEKAAVIFRDQKLHHQYVDEFVEYLKNGK
notes: N-terminal 6xHis-trigger factor fusion (pCold-TF), about 105 kDa; E. coli Origami (DE3); tag not removed for kinetics

What was measured:
CsFGT (rCsFGT) [1] = biological target: T1, CsFGT (rCsFGT) (Camellia sinensis, UniProt A0A0X9FCW5, S291G); assay: product formation by HPLC; type: biochemical; details: co-substrate UDP-glc
T1 construct: gene UGT91Q1; N-terminal 6xHis-trigger factor fusion (pCold-TF), about 105 kDa; E. coli Origami (DE3); tag not removed for kinetics
T1 sequence (A0A0X9FCW5 entry or part of it S291G): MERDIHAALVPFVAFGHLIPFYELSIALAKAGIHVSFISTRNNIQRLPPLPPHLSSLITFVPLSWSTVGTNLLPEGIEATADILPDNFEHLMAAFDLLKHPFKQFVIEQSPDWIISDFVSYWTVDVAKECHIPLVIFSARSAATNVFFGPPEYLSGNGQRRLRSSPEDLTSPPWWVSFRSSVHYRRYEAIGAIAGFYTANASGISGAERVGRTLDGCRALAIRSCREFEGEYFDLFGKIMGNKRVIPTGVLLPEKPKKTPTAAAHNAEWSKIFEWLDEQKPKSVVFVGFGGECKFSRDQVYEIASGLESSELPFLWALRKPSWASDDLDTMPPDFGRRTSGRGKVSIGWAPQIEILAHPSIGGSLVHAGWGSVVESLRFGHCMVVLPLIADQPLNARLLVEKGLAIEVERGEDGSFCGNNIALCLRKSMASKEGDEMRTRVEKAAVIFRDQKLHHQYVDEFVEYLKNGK

CsFGT (rCsFGT) [2] = biological target: T2, CsFGT (rCsFGT) (Camellia sinensis, UniProt A0A0X9FCW5, E292Q); assay: product formation by HPLC; type: biochemical; details: co-substrate UDP-glc
T2 construct: gene UGT91Q1; N-terminal 6xHis-trigger factor fusion (pCold-TF), about 105 kDa; E. coli Origami (DE3); tag not removed for kinetics
T2 sequence (A0A0X9FCW5 entry or part of it E292Q): as the sequence (A0A0X9FCW5 entry or part of it S291G) above, with G291S, E292Q counted along it

CsFGT (rCsFGT) [3] = biological target: T3, CsFGT (rCsFGT) (Camellia sinensis, UniProt A0A0X9FCW5, Q352A); assay: product formation by HPLC; type: biochemical; details: co-substrate UDP-glc
T3 construct: gene UGT91Q1; N-terminal 6xHis-trigger factor fusion (pCold-TF), about 105 kDa; E. coli Origami (DE3); tag not removed for kinetics
T3 sequence (A0A0X9FCW5 entry or part of it Q352A): as the sequence (A0A0X9FCW5 entry or part of it S291G) above, with G291S, Q352A counted along it

CsFGT (rCsFGT) [4] = biological target: T4, CsFGT (rCsFGT) (Camellia sinensis, UniProt A0A0X9FCW5, G290A); assay: product formation by HPLC; type: biochemical; details: co-substrate UDP-glc
T4 construct: gene UGT91Q1; N-terminal 6xHis-trigger factor fusion (pCold-TF), about 105 kDa; E. coli Origami (DE3); tag not removed for kinetics
T4 sequence (A0A0X9FCW5 entry or part of it G290A): as the sequence (A0A0X9FCW5 entry or part of it S291G) above, with G290A, G291S counted along it

CsFGT (rCsFGT) [5] = biological target: T5, CsFGT (rCsFGT) (Camellia sinensis, UniProt A0A0X9FCW5, E292T); assay: product formation by HPLC; type: biochemical; details: co-substrate UDP-glc
T5 construct: gene UGT91Q1; N-terminal 6xHis-trigger factor fusion (pCold-TF), about 105 kDa; E. coli Origami (DE3); tag not removed for kinetics
T5 sequence (A0A0X9FCW5 entry or part of it E292T): as the sequence (A0A0X9FCW5 entry or part of it S291G) above, with G291S, E292T counted along it

CsFGT (rCsFGT) [6] = biological target: T6, CsFGT (rCsFGT) (Camellia sinensis, UniProt A0A0X9FCW5, R319P); assay: product formation by HPLC; type: biochemical; details: co-substrate UDP-glc
T6 construct: gene UGT91Q1; N-terminal 6xHis-trigger factor fusion (pCold-TF), about 105 kDa; E. coli Origami (DE3); tag not removed for kinetics
T6 sequence (A0A0X9FCW5 entry or part of it R319P): as the sequence (A0A0X9FCW5 entry or part of it S291G) above, with G291S, R319P counted along it

CsFGT (rCsFGT) [7] = biological target: T7, CsFGT (rCsFGT) (Camellia sinensis, UniProt A0A0X9FCW5, R319N); assay: product formation by HPLC; type: biochemical; details: co-substrate UDP-glc
T7 construct: gene UGT91Q1; N-terminal 6xHis-trigger factor fusion (pCold-TF), about 105 kDa; E. coli Origami (DE3); tag not removed for kinetics
T7 sequence (A0A0X9FCW5 entry or part of it R319N): as the sequence (A0A0X9FCW5 entry or part of it S291G) above, with G291S, R319N counted along it

CsFGT (rCsFGT) [8] = biological target: T8, CsFGT (rCsFGT) (Camellia sinensis, UniProt A0A0X9FCW5, Q352I); assay: product formation by HPLC; type: biochemical; details: co-substrate UDP-glc
T8 construct: gene UGT91Q1; N-terminal 6xHis-trigger factor fusion (pCold-TF), about 105 kDa; E. coli Origami (DE3); tag not removed for kinetics
T8 sequence (A0A0X9FCW5 entry or part of it Q352I): as the sequence (A0A0X9FCW5 entry or part of it S291G) above, with G291S, Q352I counted along it

[9] = substrate: C[C@@H]1O[C@@H](OC[C@H]2O[C@@H](Oc3c(-c4ccc(O)c(O)c4)oc4cc(O)cc(O)c4c3=O)[C@H](O)[C@@H](O)[C@@H]2O)[C@H](O)[C@H](O)[C@H]1O; assay: UDP-Glo glycosyltransferase assay, Michaelis-Menten fit; type: biochemical, Camellia sinensis; details: 1 mM UDP-glucose, 50 mM phosphate pH 8.0, 30°C, 10 min
Excerpt: (§1) UDP-Glo glycosyltransferase assay, Michaelis-Menten fit on CsFGT (rCsFGT)

[10] = substrate: O=c1ccn([C@@H]2O[C@H](COP(=O)(O)OP(=O)(O)O[C@H]3O[C@H](CO)[C@H](O)[C@H](O)[C@H]3O)[C@@H](O)[C@H]2O)c(=O)[nH]1; assay: as above; type: biochemical, Camellia sinensis; details: co-substrate delphinidin, pH 8.0, 30°C, 10 min, galactosyl transfer
Excerpt: as §1

[11] = substrate: O=c1ccn([C@@H]2O[C@H](CO[P@@](=O)(O)O[P@@](=O)(O)O[C@H]3O[C@H](CO)[C@@H](O)[C@H](O)[C@H]3O)[C@@H](O)[C@H]2O)c(=O)[nH]1; assay: as above; type: biochemical, Camellia sinensis; details: 100 μM Q-g-r (rutin), 50 mM phosphate pH 8.0, 30°C, 10 min
Excerpt: as §1

[12] = substrate: Oc1cc(O)c2cc(O)c(-c3cc(O)c(O)c(O)c3)[o+]c2c1; assay: as above; type: biochemical, Camellia sinensis; details: 1 mM UDP-galactose, pH 8.0, 30°C, 10 min, galactosyl transfer
Excerpt: as §1

Row | Molecule | relative enzymatic activity (CsFGT (rCsFGT) [1]) | relative enzymatic activity (CsFGT (rCsFGT) [2]) | relative enzymatic activity (CsFGT (rCsFGT) [3]) | relative enzymatic activity (CsFGT (rCsFGT) [4]) | relative enzymatic activity (CsFGT (rCsFGT) [5]) | relative enzymatic activity (CsFGT (rCsFGT) [6]) | relative enzymatic activity (CsFGT (rCsFGT) [7]) | relative enzymatic activity (CsFGT (rCsFGT) [8]) | Km [9] [µM] | kcat/Km [9] [M⁻¹ s⁻¹] | Km [10] [µM] | kcat/Km [10] [M⁻¹ s⁻¹] | Km [11] [µM] | kcat/Km [11] [M⁻¹ s⁻¹] | Km [12] [µM] | kcat/Km [12] [M⁻¹ s⁻¹]
1 | C[C@@H]1O[C@@H](OC[C@H]2O[C@@H](Oc3c(-c4ccc(O)c(O)c4)oc4cc(O)cc(O)c4c3=O)[C@H](O)[C@@H](O)[C@@H]2O)[C@H](O)[C@H](O)[C@H]1O [Q-g-r] | mutants with activity unchanged or enhanced (G290A, S291G, E292Q, R319N, and R319P) | mutants with activity unchanged or enhanced (G290A, S291G, E292Q, R319N, and R319P) | E292T, Q352A, and Q352I mutants exhibited significantly decreased activity | mutants with activity unchanged or enhanced (G290A, S291G, E292Q, R319N, and R319P) | E292T, Q352A, and Q352I mutants exhibited significantly decreased activity | mutants with activity unchanged or enhanced (G290A, S291G, E292Q, R319N, and R319P) | the mutant R319N had significantly enhanced activity | E292T, Q352A, and Q352I mutants exhibited significantly decreased activity |  |  |  |  |  |  |  | 
2 | B1 |  |  |  |  |  |  |  |  | 50.3 ± 9.7 | 610000 | 1143.3 ± 313.5 | 3100 | 209.7 ± 43.9 | 110000 | 902.5 ± 109.0 | 24000
